Laboratory results reported in the supplement of paper PMC10307832.

What was measured:
Experiment in all cases: relative viability (nuclei count vs DMSO), 5 days (fraction); higher = more cells survive
Shikonin + Dasatinib = compound: CC(C)=CC[C@@H](O)C1=CC(=O)c2c(O)ccc(O)c2C1=O [Shikonin] + Cc1nc(Nc2ncc(C(=O)Nc3c(C)cccc3Cl)s2)cc(N2CCN(CCO)CC2)n1 [Dasatinib] (partner 0.075 µM)
Summary of the method: (§1)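 Relative viability is defined as nuclei in treated wells over nuclei in vehicle wells. Duplicate plates were run and medians reported. Lung cancer cell lines in 1536-well plates were dosed by pin tool one day after seeding, with one drug or with a fixed anchor-drug dose plus five library-drug doses (not always all listed) in √10 steps, and nuclei were counted after 5 days.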

[1] = compound: CC(C)N(CCCNC(=O)Nc1ccc(C(C)(C)C)cc1)C[C@H]1O[C@@H](n2ccc3c(N)ncnc32)[C@H](O)[C@@H]1O + CC(=O)Nc1cccc(-n2c(=O)n(C3CC3)c(=O)c3c(Nc4ccc(I)cc4F)n(C)c(=O)c(C)c32)c1 [Trametinib] (partner 0.02 µM)
Summary of the method: as §1

[2] = compound: CC(C)N(CCCNC(=O)Nc1ccc(C(C)(C)C)cc1)C[C@H]1O[C@@H](n2ccc3c(N)ncnc32)[C@H](O)[C@@H]1O + COc1cc2c(Oc3ccc(NC(=O)C4(C(=O)Nc5ccc(F)cc5)CC4)cc3F)ccnc2cc1OCCCN1CCOCC1 [Foretinib] (partner 0.25 µM)
Summary of the method: as §1

[3] = compound: CC(C)N(CCCNC(=O)Nc1ccc(C(C)(C)C)cc1)C[C@H]1O[C@@H](n2ccc3c(N)ncnc32)[C@H](O)[C@@H]1O + CS(=O)(=O)N1CCN(Cc2cc3nc(-c4cccc5[nH]ncc45)nc(N4CCOCC4)c3s2)CC1 [Pictilisib] (partner 1 µM)
Summary of the method: as §1

Cell Line	relative viability (Shikonin + Dasatinib; first compound 0.01 µM)	relative viability (Shikonin + Dasatinib; first compound 0.1 µM)	relative viability (Shikonin + Dasatinib; first compound 0.3162 µM)	relative viability (Shikonin + Dasatinib; first compound 1 µM)	relative viability ([1]; first compound 0.08 µM)	relative viability ([1]; first compound 0.253 µM)	relative viability ([1]; first compound 0.8 µM)	relative viability ([1]; first compound 2.53 µM)	relative viability ([1]; first compound 8 µM)	relative viability ([2]; first compound 0.08 µM)	relative viability ([2]; first compound 0.253 µM)	relative viability ([2]; first compound 0.8 µM)	relative viability ([2]; first compound 2.53 µM)	relative viability ([2]; first compound 8 µM)	relative viability ([3]; first compound 0.08 µM)	relative viability ([3]; first compound 0.253 µM)	relative viability ([3]; first compound 0.8 µM)	relative viability ([3]; first compound 2.53 µM)	relative viability ([3]; first compound 8 µM)
NCI-H1437	0.377	0.385	0.367	0.531	0.472	0.521	0.496	0.428	0.45	1.21	1.2	1.19	1.23	1.11	0.362	0.358	0.526	0.428	0.441
COR-L23	0.482	0.49	0.532	0.462	0.664	0.374	0.631	0.67	0.519	0.843	1.02	1.02	0.986	0.962	0.678	0.606	0.662	0.778	0.735
ABC-1	0.603	0.685	0.552	0.301						0.92	1		1.41	1.07	0.623	0.71		0.828	0.701
NCI-H522	0.901	0.852	1.04	1.16	0.633	0.763	0.824	0.798	0.845										
PC-3 [JPC-3]	1.11	0.968	1.1	0.958	0.664	0.722		0.715	0.683	1.05	1.15	0.96	1.05	0.936	0.757	0.677	0.658	0.656	0.727
SW 900	0.5	0.592	0.545	0.634	0.734	0.78		0.766	0.717	0.737	0.893		1.09	0.952					
A549										0.939	1.06	1.05	0.522	0.885	0.513	0.501	0.53	0.52	0.469
A-427	0.877	0.801	0.721	0.658	0.751	0.816	0.677	0.806	0.743	1.08	1.04	1.1	1.1	0.966	0.775	0.644	0.812	0.597	0.77
NCI-H1792	0.91	0.6	0.934	1.01	0.397		0.372	0.419	0.29						0.26	0.245	0.219	0.254	0.267
LCLC-97TM1	0.877	0.848	1.09	0.815	0.179	0.202	0.184	0.193	0.187	0.927	0.821	1.02	0.999	0.868	0.184		0.147	0.202	0.178
NCI-H1703										0.294	0.33		0.403	0.401	0.223	0.247	0.257	0.244	0.24
